8 compounds from patent US7932389B2, “Octahydropyrrolo[2,3C]pyridine derivatives and pharmaceutical use thereof” (Merck Serono S.A., priority 2004, dated 2011) can be followed below.

Holding throughout (assay type): biochemical
For one assay, the target named is T1, MMP-2 (Homo sapiens, UniProt P08253).
T1 sequence (P08253 110-660): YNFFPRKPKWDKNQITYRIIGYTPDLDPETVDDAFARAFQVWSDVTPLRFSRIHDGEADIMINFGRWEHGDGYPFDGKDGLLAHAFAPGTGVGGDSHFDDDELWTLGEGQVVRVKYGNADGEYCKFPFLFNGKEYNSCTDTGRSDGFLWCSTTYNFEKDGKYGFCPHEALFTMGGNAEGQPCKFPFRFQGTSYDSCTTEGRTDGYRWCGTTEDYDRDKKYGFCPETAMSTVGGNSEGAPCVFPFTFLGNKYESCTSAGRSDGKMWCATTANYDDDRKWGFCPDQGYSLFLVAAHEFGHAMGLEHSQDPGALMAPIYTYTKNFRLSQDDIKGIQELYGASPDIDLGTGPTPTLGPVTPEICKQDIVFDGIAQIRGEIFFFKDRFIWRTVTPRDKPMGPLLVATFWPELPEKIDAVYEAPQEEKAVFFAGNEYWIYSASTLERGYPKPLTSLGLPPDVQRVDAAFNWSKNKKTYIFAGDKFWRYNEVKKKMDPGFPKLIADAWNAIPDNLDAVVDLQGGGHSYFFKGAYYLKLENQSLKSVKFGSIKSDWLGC
Briefly: MMP-2 enzyme inhibition assay, coumarin-labelled peptide substrate McaPLGLDpaAR. The procedure: (§1) Compounds of the invention were tested to assess their activities as inhibitors of MMP-1, MMP-2, MMP-9, MMP-14 and MMP-12.
(§2) Stock solutions were made up as follows: Assay Butter: 100 mM Tris-HCl pH 7.6 containing 100 mM NaCl, 10 mM CaCl2, and 0.05% Brij 35.
(§3) Substrate: 0.4 mM McaPLGLDpaAR (from Bachem) (0.437 mg/ml) stock solution in 100% DMSO (stored at −20° C.). Dilute to 8 μM in assay butter.
(§4) Test Compounds were prepared initially as 10 mM compound solution in 100% DMSO, diluted to 1 mM in 100% DMSO, then serially diluted 3-fold in 100% DMSO across columns 1-10 of a 96-well microtitre plate Assay concentration range, 100 μM (column 1) to 5.1 nM (column 10).
(§5) The assay was performed in a total volume of 100 μL per well in 96-well microtitre plates. Activated enzyme (20 μL) was added to the wells followed by 20 μL of assay butter. Appropriate concentrations of test compounds dissolved in 10 μL of DMSO were then added followed by 50 μL of McaPLGLDpaAR (8 μM, prepared by dilution of DMSO stock in assay butter). For each as say ten concentrations of test compound were examined in duplicate. Control wells lack either enzyme or test compound. The reactions were incubated at 37° C. for 2 hours. The fluorescence at 405 nm was measured immediately with an SLT Fluostar fluorometer (SLT Labinstruments GmbH, Grödig, Austria) using 320 nm excitation, without stopping the reaction.
(§6) The effect of the test compound was determined from the dose response curve generated by the 10 duplicate concentrations of inhibitor. The IC50 (the concentration of compound required to give a 50% decrease in enzyme activity) was obtained by fitting data to the equation, Y=a+((b−a)/(1+(c/X)^d)). (Y=inhibition achieved for a particular dose; X=the dose in nM; a=minimum y or zero % inhibition; b=maximum y or 100% inhibition; c=is the IC50; d=is the slope). The result was rounded to one significant figure.
Compounds of the invention were tested for inhibitory activity against collagenase (MMP-2) in an assay using a coumarin-labelled peptide substrate, (7-methoxycoumarin-4-yl)acetyl-Pro-Leu-Gly-Leu-(3-[2,4-dinitrophenyl]-L-2,3diaminopropionyl)-Ala-Arg-NH2 (Mca PLGLDpaAR) (Knight et al, 1992, above). The protocol for this assay was as described for the MMP-9 assay above.

Assay [1] addresses Recombinant human 92 kDa gelatinase (MMP-9) (Homo sapiens, UniProt P14780). Briefly: MMP-9 enzyme inhibition assay, coumarin-labeled peptide substrate McaPLGLDpaAR. The procedure:
as §1
Compounds of the invention were tested for inhibitory activity against 92 kDa gelatinase (MMP-9) in an assay using a coumarin-labeled peptide substrate, (7-methoxycoumarin-4-yl)acetyl-Pro-Leu-Gly-Leu-(3-[2,4-dinitrophenyl]-L-2,3diaminopropionyl)-Ala-Arg-NH2 (McaPLGLDpaAR) (Knight et al, FEBS Lett. 1992; 263-266).
as §2, §3
Enzyme: Recombinant human 92 kDa gelatinase (MMP-9; APMA (4-aminophenyl mercuric acetate)-activated if necessary) appropriately diluted in assay butter.
as §4, §5, §6

For a further assay, the target named is metalloelastase (MMP-12) (Homo sapiens, UniProt P39900). In words: MMP-12 enzyme inhibition assay, coumarin-labelled peptide substrate McaPLGLDpaAR. Here is the method:
as §1, §2, §3, §4, §5, §6
Compounds of the invention were tested for inhibitory activity against metalloelastase (MMP-12) in an assay using a coumarin-labelled peptide substrate, (7-methoxycoumarin-4-yl)acetyl-Pro-Leu-Gly-Leu-(3-[2,4dinitrophenyl]-L-2,3-diaminopropionyl)-Ala-Arg-NH2 (McaPLGLDpaAR) (Knight et al, 1992, above). The protocol for this assay was as described for the MMP-9 assay above.

Sequence of metalloelastase (MMP-12) (P39900 106-470): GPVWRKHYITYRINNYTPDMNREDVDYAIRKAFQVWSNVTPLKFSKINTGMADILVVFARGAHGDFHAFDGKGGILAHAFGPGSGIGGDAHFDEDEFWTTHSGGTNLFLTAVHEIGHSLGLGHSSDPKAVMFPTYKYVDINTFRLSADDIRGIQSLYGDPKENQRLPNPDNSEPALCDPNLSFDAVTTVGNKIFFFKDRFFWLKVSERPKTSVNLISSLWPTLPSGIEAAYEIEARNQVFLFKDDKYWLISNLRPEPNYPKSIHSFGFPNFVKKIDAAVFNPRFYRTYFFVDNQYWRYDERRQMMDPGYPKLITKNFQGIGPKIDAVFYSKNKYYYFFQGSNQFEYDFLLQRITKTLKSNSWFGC
Sequence of Recombinant human 92 kDa gelatinase (MMP-9) (P14780 107-707 limits assumed): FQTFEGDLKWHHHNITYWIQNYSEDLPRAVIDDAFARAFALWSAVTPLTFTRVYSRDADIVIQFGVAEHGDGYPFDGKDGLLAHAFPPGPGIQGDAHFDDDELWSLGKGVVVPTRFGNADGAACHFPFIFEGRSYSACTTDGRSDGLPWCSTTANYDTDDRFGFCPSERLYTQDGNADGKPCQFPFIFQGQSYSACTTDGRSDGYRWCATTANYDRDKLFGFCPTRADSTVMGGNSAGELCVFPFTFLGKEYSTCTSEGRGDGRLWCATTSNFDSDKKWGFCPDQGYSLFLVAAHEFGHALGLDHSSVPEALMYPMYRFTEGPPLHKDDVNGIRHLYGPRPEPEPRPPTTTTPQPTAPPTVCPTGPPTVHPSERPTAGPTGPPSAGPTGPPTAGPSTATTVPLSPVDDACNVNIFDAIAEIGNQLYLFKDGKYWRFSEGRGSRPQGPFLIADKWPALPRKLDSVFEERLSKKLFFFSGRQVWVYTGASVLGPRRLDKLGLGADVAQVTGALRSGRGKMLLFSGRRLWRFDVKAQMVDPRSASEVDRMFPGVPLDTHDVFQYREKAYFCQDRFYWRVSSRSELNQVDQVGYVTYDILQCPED

Consider `COc1ccc(S(=O)(=O)N2[C@H](C(=O)NO)C[C@@H]3CCN(C(=O)c4ccccc4)C[C@@H]32)cc1` (relative stereo) [Example 1, rel-(2S,3aS,7aR)-6-benzoyl-N-hydroxy-1-[(4-methoxyphenyl)sulfonyl]octahydro-1H-pyrrolo[2,3-c]pyridine-2-carboxamide], for which the values for the IC50 (on MMP-2; in assay [1]; against metalloelastase (MMP-12)) were 2100 nM, 1700 nM and 1100 nM, respectively.
For `COc1ccc(S(=O)(=O)N2[C@H](C(=O)NO)C[C@@H]3CCN(C(C)=O)C[C@@H]32)cc1` (relative stereo) [Example 2, rel-(2S,3aS,7aR)-6-acetyl-N-hydroxy-1-[(4-methoxyphenyl)sulfonyl]octahydro-1H-pyrrolo[2,3-c]pyridine-2-carboxamide], in that order: 95 nM, 150 nM and 130 nM.
On to `COc1ccc(S(=O)(=O)N2[C@H](C(=O)NO)C[C@@H]3CCN(C(=O)CCC4CCCC4)C[C@@H]32)cc1` (relative stereo) [Example 4, rel-2S,3aS,7aR)-6-(3-cyclopentylpropanoyl)-N-hydroxy-1-[(4-methoxyphenyl)sulfonyl]octahydro-1H-pyrrolo[2,3-c]pyridine-2-carboxamide], for which the half-maximal inhibitory concentration (IC50) (commonly the concentration that inhibits the measured activity by half) against MMP-2 was 640 nM; in assay [1], 780 nM; at metalloelastase (MMP-12) it was 640 nM.
Take `COCCOC(=O)N1CC[C@H]2C[C@@H](C(=O)NO)N(S(=O)(=O)c3ccc(OC)cc3)[C@H]2C1` (relative stereo) [Example 5, 2-methoxyethyl rel-(2S,3aS,7aR)-2-[(hydroxyamino)carbonyl]-1-[(4-methoxyphenyl)sulfonyl]octahydro-6H-pyrrolo[2,3-c]pyridine-6-carboxylate]: the IC50 against MMP-2 is 850 nM; in assay [1], 1500 nM; against metalloelastase (MMP-12), 980 nM.
For `COc1ccc(S(=O)(=O)N2[C@H](C(=O)NO)C[C@@H]3CCN(C(=O)C4CCCC4)C[C@@H]32)cc1` (relative stereo) [Example 7, rel-2S,3aS,7aR)-6-cyclopentylcarbonyl)-N-hydroxy-1-[(4-methoxyphenyl)sulfonyl]octahydro-1H-pyrrolo[2,3-c]pyridine-2-carboxamide], in that order: 790 nM, 1100 nM and 610 nM.
On to `COc1ccc(S(=O)(=O)N2CC[C@H]3C[C@@H](C(=O)NO)N(S(=O)(=O)c4ccc(OC)cc4)[C@H]3C2)cc1` (relative stereo) [Example 10, rel-(2S,3aS,7aR)—N-hydroxy-1,6-bis[(4-methoxyphenyl)sulfonyl]octahydro-1H-pyrrolo[2,3-c]pyridine-2-carboxamide], for which the half-inhibitory concentration (IC50) turned out to be 1600 nM at MMP-2, 1800 nM in assay [1] and 950 nM against metalloelastase (MMP-12).
In the case of `COc1ccc(S(=O)(=O)N2[C@H](C(=O)NO)C[C@@H]3CCN(C(=O)c4ccc(-c5ccccc5)cc4)C[C@@H]32)cc1` (relative stereo) [Example 12, rel-(2S,3aS,7aR)-6-(biphenyl-4-ylcarbonyl)-N-hydroxy-1-[(4-methoxyphenyl)sulfonyl]octahydro-1H-pyrrolo[2,3-c]pyridine-2-carboxamide], the IC50 was 1700 nM against MMP-2, 1600 nM in assay [1] and 1200 nM on metalloelastase (MMP-12).
On the same counts, the results for `CCN(CC)C(=O)CN1CC[C@H]2C[C@@H](C(=O)NO)N(S(=O)(=O)c3ccc(OC)cc3)[C@H]2C1` (relative stereo) [Example 14, rel-(2S,3aS,7aR)-6-[2-(diethylamino)-2-oxoethyl]-N-hydroxy-1-[(4-methoxyphenyl)sulfonyl]octahydro-1H-pyrrolo[2,3-c]pyridine-2-carboxamide] are 1200 nM, 1500 nM and 930 nM.
